Read-outs that look alike come from different tables or passages of the source. Marks after values point to notes of the source that are not given here.
Tests used:
IL5 = experiment: Inhibition of IL5 secretion by Concanavalin A-treated splenocytes (ELISA); format: cell-based, Balb/c mice; conditions: for inhibition of IL5 secretion (in words): text on Tables 7 and 8
Method: (§1) The isolated splenocytes were diluted in RPMI medium (containing 10% fetal bovine serum (FBS) and antibiotics (100 U/mL penicillin and 100 μg/mL streptomycin)) at a concentration of 5×10^6 cells/nit, and the cell dilution was dispended in a 24-well plate in an amount of 500 μl/well and in a 96-well plate in an amount of 100 μl/well. The plates were incubated in a 5% CO2 incubator at 37° C. for 48 hours. […] The medium of the 24-well plate was used to measure the degree of secretion of Th2 inflammatory cytokines (IL4 and IL5), and the 96-well plate was used to measure the degree of cell proliferation. First, in order to measure Th2 cytokines, the medium in the 24-well plate was collected and centrifuged at 800×g for 5 minutes, and the supernatant was collected. 100 μl of the supernatant per well was used in IL4 or IL5 enzyme-linked immunosorbent assay (ELISA, Komabiotech Inc.) to measure the degree of secretion of these cytokines. In order to measure the degree of cell proliferation, […] of CCK8 (cell counting kit 8, Donjindo) solution was added to each well of the 96-well plate, and after 4 hours, the absorbance value was measured. The degree of inhibition of spleen cell proliferation by each drug and the degree of inhibition of Th2 cytokine secretion by each drug were calculated using Equation 2 below. For drug synergistic effects, a linear equation was constructed using the concentrations of drugs administered alone as x-coordinates and using drug concentration-dependent inhibition as y-coordinates. Using this linear equation, the concentrations of drugs administered alone, which correspond to inhibition achieved when administered in combination, were calculated, and combination index (CI) was calculated using Equation 3 below. A CI value of less than 1 indicates a synergistic effect, a CI value of 1 indicates an additive effect, and a CI value of more than 1 indicates an antagonistic effect (Liang Zhao et. al., Clinical Cancer Research, 10, 7994-8004, 2004). […]

splenocytes = experiment: Inhibition of Concanavalin A-induced splenocyte proliferation (CCK8); format: cell-based, Balb/c mice; conditions: for inhibition of splenocyte proliferation (in words): Tables 4 to 6
Method: as §1

IL4 = experiment: Inhibition of IL4 secretion by Concanavalin A-treated splenocytes (ELISA); format: cell-based, Balb/c mice; conditions: for inhibition of IL4 secretion (in words): text on Tables 7 and 8
Method: as §1

[1] = tested on: Neutrophilic Asthma Balb/c Mouse Models; experiment: Asthma inhibitory effect in neutrophilic asthma model (ovalbumin + LPS): lung lavage fluid and lung tissue; format: in vivo, Balb/c mice; conditions: oral
Method: On 0 and 7 days after 1 week of acclimation, each of the mice was systematically sensitized by intranasally administering 75 μg of ovalbumin and 10 μg of lipopolysaccharide (LPS). 20, 50 or 100 mg/kg of the Justicia procumbens L. prepared in Preparation Example 3 or a positive control (10 mg/kg of dexamethasone and 1 mg/kg of montelukast) was administered orally to the mice On days 14, 15, 21, 22, 28, 29, 35, 36 and 37. One hour after administration, 50 μg of ovalbumin was administered intranasally to the mice. 24 hours after final sensitization (day 37), lung lavage fluid was obtained through tracheostomy, and the lung tissue was isolated. The collected lung lavage fluid was centrifuged at 3000 rpm […], and the supernatant was used to measure physiologically active substances (IL-4, IL-5, and IFN-γ), and the pellets were used to measure the number of inflammatory cells. The physiologically active substances (interleukin-4 (IL-4), interleukin-5 (IL-5), and interferon-gamma (IFN-γ)) in the isolated lung lavage fluid were measured using an enzyme-linked immunosorbent assay (ELISA, IL-4: Komabiotech #K0331144, IL-5: R&D system #M5000, IFN-γ: Komabiotech #K0331138) corresponding to each substance. In addition, the lung lavage fluid pellets were re-dissolved in 0.5 mL of phosphate buffered saline, and 0.1 mL of the solution was added to each well of a 96-well plate and centrifuged at 800 rpm for 5 minutes to attach the cells to the bottom (3 wells per sample). Then, each sample was stained with Diff Quik staining solution (Sysmex), and photographed with a microscope at 2-6 random sites. About 200 cells per sample were counted and the percentage (%) of inflammatory cells of each sample was calculated. The total number of inflammatory cells was measured with a microscope using a hematocytometer, and the number of eosinophils and the number of neutrophils were calculated using the percentage (%) of inflammatory cells of each sample. Staining of the lung tissue was performed in the same manner as described in Example 5 above. Statistical processing was performed using an SPSS program, and a Levene test was performed for a test for equal variance, and significance was tested by one-way analysis (ANOVA).

[2] = Table 8, Concentration (mM) 0.2
[3] = Mus musculus, Splenocyte, Table 5, 0.5 μM, read-out: Inhibition of splenocyte proliferation (%, n = 3, Mean ± SD)
[4] = Table 8, Concentration (mM) 0.25
[5] = Table 8, Concentration (mM) 0.5

Compound | inhibition at 0.5 µM (splenocytes; [3]) [%] | Inhibition of IL5 secretion (%, n = 2, Mean ± SD) (IL5; Table 7, 1 μM) [%] | Inhibition of IL5 secretion (%, n = 2, Mean ± SD) (IL5; Table 7, 5 μM) [%] | Inhibition of IL5 secretion (%, n = 2, Mean ± SD) (IL5; Table 8, Concentration (mM) 1) [%] | Inhibition of IL5 secretion (%, n = 2, Mean ± SD) (IL5; Table 8, Concentration (mM) 5) [%] | inhibition of IL5 secretion (in words) (IL5) | Inhibition of splenocyte proliferation (%, n = 3, Mean ± SD) (splenocytes; Table 5, 0.5 μM) [%] | Inhibition of splenocyte proliferation (%, n = 3, Mean ± SD) (splenocytes; Table 5, 5 μM) [%] | Inhibition of splenocyte proliferation (%, n = 3, Mean ± SD) (splenocytes; Table 6, 1 μM) [%] | Inhibition of splenocyte proliferation (%, n = 3, Mean ± SD) (splenocytes; Table 6, 5 μM) [%] | inhibition of splenocyte proliferation (in words) (splenocytes) | Inhibition of IL4 secretion (%, n = 2, Mean ± SD) (IL4; Table 7, 1 μM) [%] | Inhibition of IL4 secretion (%, n = 2, Mean ± SD) (IL4; Table 7, 5 μM) [%] | Inhibition of IL4 secretion (%, n = 2, Mean ± SD) (IL4; Table 8, Concentration (mM) 1) [%] | Inhibition of IL4 secretion (%, n = 2, Mean ± SD) (IL4; Table 8, Concentration (mM) 5) [%] | inhibition of IL4 secretion (in words) (IL4) | also measured
C[C@@H]1C[C@H]2[C@@H]3CCC4=CC(=O)C=C[C@]4(C)[C@@]3(F)[C@@H](O)C[C@]2(C)[C@@]1(O)C(=O)CO [Dexamethasone, dexamethasone] | 118.7 ± 0.21 |  |  |  |  |  |  |  |  |  |  |  |  |  |  |  | inhibition at 0.5 µM (IL5; Mus musculus, Splenocyte, Table 7, 0.5 μM, read-out: Inhibition of IL5 secretion (%, n = 2, Mean ± SD)): 103%; Inhibition of IL5 secretion (%, n = 2, Mean ± SD) (IL5; [2]): 98.9 ± 0.01%; inhibition at 0.5 µM (splenocytes; Mus musculus, Splenocyte, Table 4, 0.5 μM, read-out: Inhibition of splenocyte proliferation (n = 3, Mean ± SD)): 110.3 ± 0.62%; inhibition at 0.2 µM (splenocytes; Mus musculus, Splenocyte, Table 6, 0.2 μM, read-out: Inhibition of splenocyte proliferation (%, n = 3, Mean ± SD)): 94.1 ± 1.8%; inhibition at 0.5 µM (IL4; Mus musculus, Splenocyte, Table 7, 0.5 μM, read-out: Inhibition of IL4 secretion (%, n = 2, Mean ± SD)): 100%; Inhibition of IL4 secretion (%, n = 2, Mean ± SD) (IL4; [2]): 97.8 ± 0.00%; Epithelium thickness (μm), n = 5, Mean ± S.E. ([1]; 1 mg/kg): 5.0 ± 0.38##, $$ μm; Lung lavage fluid_IFN-γ (pg/mL), n = 5, Mean ± S.E. ([1]; 1 mg/kg): 1.3 ± 0.61##, $$ pg/mL; Lung lavage fluid_IL-4 (pg/mL), n = 5, Mean ± S.E. ([1]; 1 mg/kg): 32.1 ± 9.51## pg/mL; Lung lavage fluid_IL-5 (pg/mL), n = 5, Mean ± S.E. ([1]; 1 mg/kg): 53.0 ± 13.59##, $$ pg/mL; Lung lavage fluid_eosinophil number (×10^5), n = 5, Mean ± S.E. ([1]; 1 mg/kg): 0.1 ± 0.01## ×10^5; Lung lavage fluid_neutrophil number (×10^5), n = 5, Mean ± S.E. ([1]; 1 mg/kg): 0.2 ± 0.02## ×10^5; Lung lavage fluid_total inflammatory cell number (×10^5), n = 5, Mean ± S.E. ([1]; 1 mg/kg): 1.3 ± 0.07## ×10^5; Subepithelial smooth muscle thickness (μm), n = 5, Mean ± S.E. ([1]; 1 mg/kg): 2.7 ± 0.35 μm
COc1cc2c(OC)c3c(c(-c4ccc5c(c4)OCO5)c2cc1OC)C(=O)OC3 [Justicidin A, justicidin A] |  | 25.4 ± 0.01 | 56.7 ± 0.00 | 11.7 ± 0.27 | 25.7 ± 0.08 | inhibited the secretion of IL4 and IL5 | −2.7 ± 1.84 | 85.0 ± 2.43 | 43.4 ± 1.63 | 99.0 ± 2.35 | high inhibitory activities | −10.6 ± 0.08 | 54.7 ± 0.02 | 71.6 ± 0.02 | 86.4 ± 0.04 | inhibited the secretion of IL4 and IL5 | Inhibition of splenocyte proliferation (%, n = 3, Mean ± SD) (splenocytes; Table 5, 1 μM): 9.4 ± 4.36%; Inhibition of splenocyte proliferation (%, n = 3, Mean ± SD) (splenocytes; Table 5, 2.5 μM): 56.4 ± 18.80%
COc1cc2cc3c(c(-c4ccc5c(c4)OCO5)c2cc1OC)C(=O)OC3 [Justicidin B, justicidin B] |  | 84.4 ± 0.00 |  |  |  | inhibited the secretion of IL4 and IL5 | 64.3 ± 0.50 |  |  |  | high inhibitory activities | 78.2 ± 0.01 |  |  |  | inhibited the secretion of IL4 and IL5 | Inhibition of IL5 secretion (%, n = 2, Mean ± SD) (IL5; Table 7, 0.5 μM): 55.8 ± 0.01%; Inhibition of IL5 secretion (%, n = 2, Mean ± SD) (IL5; [4]): 41.9 ± 0.04%; Inhibition of IL5 secretion (%, n = 2, Mean ± SD) (IL5; [5]): 66.8 ± 0.10%; Inhibition of splenocyte proliferation (%, n = 3, Mean ± SD) (splenocytes; Table 5, 0.25 μM): 14.2 ± 1.43%; Inhibition of splenocyte proliferation (%, n = 3, Mean ± SD) (splenocytes; Table 6, 0.25 μM): 72.5 ± 2.66%; Inhibition of splenocyte proliferation (%, n = 3, Mean ± SD) (splenocytes; Table 6, 0.5 μM): 90.8 ± 0.94%; Inhibition of IL4 secretion (%, n = 2, Mean ± SD) (IL4; Table 7, 0.5 μM): 35.9 ± 0.01%; Inhibition of IL4 secretion (%, n = 2, Mean ± SD) (IL4; [4]): 81.6 ± 0.02%; Inhibition of IL4 secretion (%, n = 2, Mean ± SD) (IL4; [5]): 87.6 ± 0.02%
COc1cc2c(OC)c3c(c(-c4ccc5c(c4)OCO5)c2cc1OC)COC3=O [Justicidin C, justicidin C] |  | 39.8 ± 0.03 | 36.4 ± 0.02 | 16.9 ± 0.06 | 26.2 ± 0.00 | inhibited the secretion of IL4 and IL5 | −3.6 ± 4.00 | 8.4 ± 3.20 | 6.7 ± 15.08 | 31.7 ± 12.81 | exhibited the effect of inhibiting splenocyte proliferation | −14.1 ± 0.05 | 26.1 ± 0.04 | 25.3 ± 0.15 | 51.7 ± 0.02 | inhibited the secretion of IL4 and IL5 | 
CC(C)(O)c1ccccc1CC[C@@H](SCC1(CC(=O)O)CC1)c1cccc(/C=C/c2ccc3ccc(Cl)cc3n2)c1 [Montelukast, montelukast] | 40.2 ± 2.64 |  |  |  |  |  |  |  |  |  |  |  |  |  |  |  | inhibition at 10 µM (IL5; Mus musculus, Splenocyte, Table 7, 10 μM, read-out: Inhibition of IL5 secretion (%, n = 2, Mean ± SD)): 70.2 ± 0.01%; inhibition at 10 µM (splenocytes; Mus musculus, Splenocyte, Table 4, 10 μM, read-out: Inhibition of splenocyte proliferation (n = 3, Mean ± SD)): 44.1 ± 4.34%; inhibition at 10 µM (IL4; Mus musculus, Splenocyte, Table 7, 10 μM, read-out: Inhibition of IL4 secretion (%, n = 2, Mean ± SD)): -42.6 ± 0.08%; Epithelium thickness (μm), n = 5, Mean ± S.E. ([1]; 10 mg/kg): 25.5 ± 1.64 μm; Lung lavage fluid_IFN-γ (pg/mL), n = 5, Mean ± S.E. ([1]; 10 mg/kg): 32.2 ± 2.13## pg/mL; Lung lavage fluid_IL-4 (pg/mL), n = 5, Mean ± S.E. ([1]; 10 mg/kg): 96.9 ± 14.40## pg/mL; Lung lavage fluid_IL-5 (pg/mL), n = 5, Mean ± S.E. ([1]; 10 mg/kg): 194.4 ± 23.1## pg/mL; Lung lavage fluid_eosinophil number (×10^5), n = 5, Mean ± S.E. ([1]; 10 mg/kg): 0.7 ± 0.05## ×10^5; Lung lavage fluid_neutrophil number (×10^5), n = 5, Mean ± S.E. ([1]; 10 mg/kg): 1.5 ± 0.07## ×10^5; Lung lavage fluid_total inflammatory cell number (×10^5), n = 5, Mean ± S.E. ([1]; 10 mg/kg): 4.0 ± 0.25## ×10^5; Subepithelial smooth muscle thickness (μm), n = 5, Mean ± S.E. ([1]; 10 mg/kg): 10.7 ± 0.59 μm
phyllamyricin C |  | 22.9 ± 0.01 | 67.9 ± 0.01 | 0.5 ± 0.05 | 31.6 ± 0.08 | inhibited the secretion of IL4 and IL5 | 0.9 ± 2.86 | 18.8 ± 2.82 | 19.0 ± 18.44 | 25.0 ± 11.37 | exhibited the effect of inhibiting splenocyte proliferation | 9.8 ± 0.05 | 14.4 ± 0.01 | 11.8 ± 0.01 | 51.5 ± 0.11 | inhibited the secretion of IL4 and IL5 | 

From patent US10869904B2, “Pharmaceutical composition for preventing or treating respiratory disease comprising extract of Justicia procumbens L” (DONG WHA PHARM. CO., LTD., priority 2016, dated 2020)
